Tests used:
WI-38 [1] = test: Anti viral activity against HCMV(AD169) in WI-38 cell monolayers; type: functional; conditions: Homo sapiens, read-out: ID50 (the source's name)
WI-38 [2] = test: Anti viral activity against HSV-1(Schooler) in WI-38 cell monolayers; type: functional; conditions: Homo sapiens, read-out: ID50 (the source's name)
WI-38 [3] = test: Anti viral activity against HSV-2(186) in WI-38 cell monolayers; type: functional; conditions: Homo sapiens, read-out: ID50 (the source's name)
WI-38 [4] = test: Growth inhibitory activity against WI-38 cells; type: functional; conditions: Homo sapiens, read-out: ID50 (the source's name)
[5] = target: T1, Thymidine kinase, cytosolic (Homo sapiens) (UniProt P04183); conditions: Human alphaherpesvirus 3
T1 sequence (whole entry): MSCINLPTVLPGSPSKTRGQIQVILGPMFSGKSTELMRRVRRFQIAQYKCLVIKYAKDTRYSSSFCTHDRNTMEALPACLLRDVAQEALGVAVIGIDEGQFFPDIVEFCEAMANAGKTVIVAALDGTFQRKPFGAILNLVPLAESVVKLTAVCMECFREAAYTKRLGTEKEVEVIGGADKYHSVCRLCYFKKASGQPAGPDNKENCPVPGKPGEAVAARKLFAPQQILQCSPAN

WI-38 [6] = test: Anti viral activity against VZV(9021 strain) in WI-38 cell monolayers.; type: functional; conditions: Homo sapiens, read-out: ID50 (the source's name)
WI-38 [7] = test: Anti viral activity against VZV(Ellen strain) in WI-38 cell monolayers.; type: functional; conditions: Homo sapiens, read-out: ID50 (the source's name)
WI-38 [8] = test: Anti viral activity against VZV(Ito strain) in WI-38 cell monolayers.; type: functional; conditions: Homo sapiens, read-out: ID50 (the source's name)
WI-38 [9] = test: Anti viral activity against VZV (Kanno-Kohmura(TK-) strain) in WI-38 cell monolayers.; type: functional; conditions: Homo sapiens, read-out: ID50 (the source's name)
WI-38 [10] = test: Anti viral activity against VZV(pplla strain) in WI-38 cell monolayers.; type: functional; conditions: Homo sapiens, read-out: ID50 (the source's name)
[11] = Therapeutic index of compound maesured as ratio of ID50 for WI-38 cell growth inhibition / ID50 anti-VZV (strain Ellen); type: cell-based; conditions: human, WI-38 cells; read-out: Therapeutic index
WI-38 [12] = test: Anti viral activity against HSV-1 in WI-38 cell monolayers.; type: functional; conditions: Homo sapiens, read-out: ID50 (the source's name)
[13] = target: T1, Thymidine kinase, cytosolic (Homo sapiens); conditions: Human alphaherpesvirus 3; remark: listed apart in the source
WI-38 [14] = test: Anti viral activity against VZV(Oka strain) in WI-38 cell monolayers.; type: functional; conditions: Homo sapiens, read-out: ID50 (the source's name)
WI-38 [15] = test: Anti viral activity against HSV-2 in WI-38 cell monolayers.; type: functional; conditions: Homo sapiens, read-out: ID50 (the source's name)
WI-38 [16] = test: Anti viral activity against VZV in WI-38 cell monolayers.; type: functional; conditions: Homo sapiens, read-out: ID50 (the source's name)
WI-38 [17] = test: Anti viral activity against HCMV in WI-38 cell monolayers.; type: functional; conditions: Homo sapiens, read-out: ID50 (the source's name)
WI-38 [18] = test: Anti viral activity against VZV(40a2 (TK-) strain) in WI-38 cell monolayers.; type: functional; conditions: Homo sapiens, read-out: ID50 (the source's name)

SMILES | IC50 (WI-38 [1]) | IC50 (WI-38 [2]) | IC50 (WI-38 [3]) | IC50 (WI-38 [4]) | Kinase activity (pM min-1*ml-1) [5] | IC50 (WI-38 [6]) | IC50 (WI-38 [7]) | IC50 (WI-38 [8]) | IC50 (WI-38 [9]) | IC50 (WI-38 [10]) | selectivity ratio [11] | IC50 (WI-38 [12]) | Kinase activity (pM min-1*ml-1) [13] | IC50 (WI-38 [14]) | IC50 (WI-38 [15]) | IC50 (WI-38 [16]) | IC50 (WI-38 [17]) | IC50 (WI-38 [18])
Nc1nc2c(ncn2COCCO)c(=O)[nH]1 [ACYCLOVIR] | 40000 nM | 200 nM | 800 nM | > 750000 nM | 13 |  |  |  |  |  |  |  |  |  |  |  |  | 
O=c1[nH]c(=O)n([C@@H]2C[C@H](CO)C2CO)cc1/C=C/Br (stereo partly specified) | > 300000 nM | 3000 nM | > 300000 nM | > 750000 nM | 63 | 150 nM | 200 nM | 15 nM | 150000 nM | 200 nM | > 1.3 |  |  |  |  |  |  | 
O=c1[nH]c(=O)n([C@@H]2C[C@H](CO)C2CO)cc1I (stereo partly specified) |  |  |  |  |  |  | 28000 nM |  |  |  |  | 14000 nM |  |  |  |  |  | 
O=c1[nH]c(=O)n([C@@H]2C[C@H](CO)C2CO)cc1/C=C/I (stereo partly specified) | 260000 nM | 13000 nM | > 260000 nM | > 800000 nM | 736 | 130 nM | 50 nM | 100 nM | > 260000 nM | 260 nM | > 2.7 |  |  |  |  |  |  | 
Cc1cn([C@H]2C[C@H](O)[C@@H](CO)O2)c(=O)[nH]c1=O |  |  |  |  | 585 |  |  |  |  |  |  |  | 174 |  |  |  |  | 
O=c1[nH]c(=O)n([C@@H]2O[C@H](CO)[C@@H](O)[C@@H]2O)cc1/C=C/Br [SORIVUDINE] | > 290000 nM | 140 nM | 120000 nM | > 75000 nM | 140 | 3 nM | 3 nM | 7 nM | > 72000 nM | 3 nM | > 7.5 |  | 95 | 3 nM |  |  |  | 
O=c1[nH]c(=O)n([C@@H]2C[C@H](CO)C2O)cc1I (stereo partly specified) |  |  |  |  |  |  |  |  |  |  |  | > 300000 nM |  |  | > 300000 nM | > 300000 nM | > 300000 nM | 
O=c1[nH]c(=O)n(C2CC(CO)C2CO)cc1/C=C/Br (racemic) | > 300000 nM | > 6000 nM | > 300000 nM | > 750000 nM | 1280 | 600 nM | 150 nM | 150 nM | > 300000 nM | 200 nM | > 2.5 |  |  | 600 nM |  |  |  | > 300000 nM
O=c1[nH]c(=O)n([C@@H]2C[C@H](CO)C2CO)cc1/C=C/Cl (stereo partly specified) | 350000 nM | 3500 nM | > 280000 nM | > 400000 nM | 333 | 1100 nM | 400 nM | 50 nM | > 220000 nM |  | > 2 |  |  |  |  |  |  | 

Source: ChEMBL document CHEMBL1126039, “Synthesis and antiviral activity of 1-cyclobutyl-5-(2-bromovinyl)uracil nucleoside analogues and related compounds” (J Med Chem, 1992)
